The values below come from patent publication US6613784B1, “Nitroxyderivatives having antinflammatory, analgesic and antithrombotic activity” (Nicox S.A., priority 1999, dated 2003).

Like-named read-outs stand apart in the source and are kept apart here.

The test system of experiment [1] is human vascular smooth cell proliferation. The experiment is described as follows: Inhibition of smooth muscle cell proliferation (3H-thymidine). The settings on record: 10% FCS. It is filed as cell-based. As to the method: Human saphenous veins were cultured by standard explant methods (J. Cardiovasc., Pharmacol. 1999, 33(2), 204-11). Tissues were collected into sterile pots containing PBS, penicillin and streptomycin. Under sterile tissue culture conditions, tissues were cut into small pieces (approximately 1 mg weight) and placed into a standard culture medium containing 20% fetal calf serum (FCS) for several days (medium changed every 2-4 days). ^3H-thymidine was measured in the DNA fraction of cells cultured into 48 well plates. Cells were cultured to confluence in the medium containing 10% FCS. Cells were deprived of serum for 24 h before the addition of 10% FCS, together with different concentration of steroids. After 24 h, ^3H-thymidine was added to the cells for 4 h. Cells were washed with phosphate buffered saline and ethanol. DNA was extracted with sodium hydroxide solution and the ^3H material counted by scintillation. The data represents observations made in triplicate wells.
Table 2 reports results obtained on the inhibitory effect of the tested compounds on human vascular smooth cell proliferation.

Experiment [2] concerns rabbit corpus cavernosum smooth muscle. The experiment can be described thus: Inhibition of smooth muscle contraction, rabbit corpus cavernosum in organ bath. Also on record: species or system New Zealand White Rabbits. The conditions noted are these: Oryctolagus cuniculus, pre-contracted with phenylephrine (10 μM). The protocol: (§1) New Zealand White Rabbits (2.0-2.5 kg) were killed by cervical dislocation, cavernosal tissue (corpus canvernosus) and aorta excised.
(§2) The tissue was mounted in organ baths for recording of isometric tension, according to the method described by Khan MA et al (BJU Int. 1999 84(6):720-4). Tissues were pre-contracted with phenylephrine (10 μM) and relaxation responses to carbachol assessed in the presence of the compound to be tested.
(§3) The compound of the invention used in the assay was 2-acetyloxybenzoic acid 6-(nitroxymethyl)-2-pyridinylmethyl ester hydrochloride (NCX 4050), which synthesis is described in preceding example 1.
(§4) The reference compound was 2-acetoxybenzoic acid (3-nitroxymethyl)phenyl ester of formula [drawing 34]

Experiment [3] deals with rabbit aorta smooth muscle. The experiment can be described thus: Inhibition of smooth muscle contraction, rabbit aorta in organ bath. Also on record: species or system New Zealand White Rabbits. The conditions noted are these: Oryctolagus cuniculus, pre-contracted with phenylephrine (10 μM). As to the method:
as §1, §2, §3, §4

[4] abbreviates: concentration (log M) −4, human saphenous vein cells.
[5] abbreviates: concentration (log M) −5, human saphenous vein cells.

For `CC(=O)Oc1ccccc1C(=O)Oc1cccc(CO[N+](=O)[O-])c1` [NCX 4016, 2-acetoxybenzoic acid (3-nitroxymethyl)phenyl ester], the “% inhibition cell proliferation” value in experiment [1] (setting [4]) was found to be 60%; in experiment [1] (setting [5]), 43%. For the same compound, the inhibition at 10 µM was determined as 14% in experiment [2] (concentration (log M) −5, read-out: % inhibition rabbit corpus cav) and 18% in experiment [3] (concentration (log M) −5, read-out: % inhibition rabbit aorta). The same compound returned an inhibition at 100 µM in experiment [3] (concentration (log M) −4) of 20%.

As for `CC(=O)Oc1ccccc1C(=O)OCc1cccc(CO[N+](=O)[O-])n1.Cl` [NCX 4050, 2-Acetyloxybenzoic Acid 6-(Nitroxymethyl)-2-pyridinylmethyl Ester Chlorhydrate], the results for the “% inhibition cell proliferation” value in experiment [1] (setting [4]) and in experiment [1] (setting [5]) were 95% and 82%, respectively. Besides, the inhibition at 10 µM in experiment [2] (read-out: % inhibition rabbit corpus cav, concentration (log M) −4) was determined as 85%; in experiment [2] (read-out: % inhibition rabbit corpus cav, concentration (log M) −5), 63%; in experiment [3] (read-out: % inhibition rabbit aorta, concentration (log M) −5), 80%.
